Values of other authors, collected in patent US11311608B2, “Methods for treating breast and other cancers by targeting argininosuccinate synthetase 1-deficiency” (CITY OF HOPE, priority 2013, dated 2022).

Details: versus arginase

Arginine deiminase
effectiveness at depleting arginine from the environment relative to arginase: 300 fold
